Where two headings read alike, the source gives them in different places.
How the values were obtained:
Human KLKB1 = Human KLKB1 (Homo sapiens (Human), UniProt P03952); test: KLKB1 kallikrein activity inhibition assay (chromogenic substrate S-2302); format: biochemical
Method in brief: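 Enzyme at a final 3 nM was assayed in 0.05 M Tris pH 7.4, 0.01 M NaCl and 0.2% PEG-8000 at room temperature, with compounds as ten-point threefold dilutions.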

[1] = target: Recombinant human tissue kallikrein (KLK1) (Homo sapiens (Human), UniProt P06870); test: KLK1 kallikrein activity inhibition assay (Pro-Phe-Arg-AMC substrate); format: biochemical
Procedure: The KLK1 kallikrein activity reported herein (e.g., Tables B and C) was obtained as follows. Recombinant human tissue kallikrein (KLK1) was obtained from R&D Systems. […] KLK1 enzyme is activated by incubating 0.5 mg/ml KLK1 combined with 0.1 μg/ml thermolysin in a buffer of 0.05 M Tres (pH 7.5), 0.15 M NaCl, and 0.01 M CaCl2 for one hour at 37° C. The thermolysin is then deactivated by the addition of equal parts 20 mM 1, 10 phenanthroline solution in water. The activated KLK1 solution is then added to CHES buffer (0.05 M CHES, 0.15 M NaCl, 0.01 M CaCl2, pH 10) for a final concentration of 5 nM along with the test article and incubated for 10 minutes. […] Substrate activation is read 10 minutes after substrate addition using a Synergy H1 multifunction plate reader (Biotek) programmed with a 360 nm excitation wavelength and a 480 nm emission wavelength. Inhibitor response was established by adding test compound as ten point, three-fold serial dilutions, as known in the art. The IC50 was calculated by plotting the percent (%) inhibition against compound concentration and fitting the data to a constrained four parameter sigmoidal curve, as known in the art.

[2] = Pharmacokinetics in mice (i.v. and p.o.); format: in vivo, male CD-1 mice; conditions: plasma
Procedure: Each compound is administered intravenously (i.v.) as a single dose via tail vein or orally (p.o.) as a single dose via gastric gavage to male CD-1 mice of nominal weights between 20 g and 26 g. Nominal doses are 1 mg/kg and 5 mg/kg for i.v. and p.o., respectively. In some examples (dose type A), both p.o. and i.v. doses are prepared by dissolving the test compound in 5% dimethyl acetamide and diluted in tetraethylene glycol for a final concentration of 0.25 mg/mL. In other examples (dose type B), i.v. doses are prepared by dissolving test compounds in 20% dimethyl acetamide, 40% polyethylene glycol 300 and 40% phosphate buffered saline, and p.o. doses are prepared by dissolving test compounds in carboxymethyl cellulose suspension (1% by weight) in water and 2.5% dimethyl acetamide.
Animals are housed in standard holding cages with food and water available ad libitum except for animals used for p.o. dosing which are fasted overnight prior to dosing. Samples are taken in triplicate via cardiac puncture at times prior to dosing and at 0.083 (i.v. only), 0.25, 0.5, 1, 2, 4, 8, and 24 hours after administration. Plasma is obtained by centrifuge and stored frozen until analyzed by LC-MS/MS using a Shimadzu VP System HPLC coupled to a Applied Biosystems MDS SCIEX API 3000 triple quadrapole MS. Assay results are calibrated using reference samples prepared in a range between 1.5 and 5000 ng/mL.
Pharmacokinetic parameters are calculated from mean concentration values using a non-compartmental analysis as described in the following and as apparent to those of ordinary skill in the art. Half-lives (t1/2) and elimination rate constants (λ) are determined by log linear regression using equal weighting on the last three finite sample time points. Concentration at time zero (C0) for the i.v. data is established by the extrapolation of log linear regression using equal weighting on the first three sample time points. Area under the curve (AUC) values are calculated using linear trapezoidal integration. Systemic clearance (CL) is calculated as the ratio of dosage and AUC. […] Percent oral bioavailability (% F) is determined from the ratio of i.v. and p.o. AUC values weighted by dosage.

Human thrombin = Human thrombin (Homo sapiens (Human), UniProt P00734); test: Thrombin protease activity inhibition assay (chromogenic substrate S-2238); format: biochemical; conditions: 3 nM thrombin, 125 μM S-2238, 10 min pre-incubation, RT
Method in brief: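 Ten-point, three-fold serial dilutions of compound tested against 3 nM enzyme at RT in Tris buffer (0.05 M, pH 7.4) with 0.015 M NaCl and 0.01% PEG-8000.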

Recombinant human tissue kallikrein (KLK1), sequence (P06870 25-262): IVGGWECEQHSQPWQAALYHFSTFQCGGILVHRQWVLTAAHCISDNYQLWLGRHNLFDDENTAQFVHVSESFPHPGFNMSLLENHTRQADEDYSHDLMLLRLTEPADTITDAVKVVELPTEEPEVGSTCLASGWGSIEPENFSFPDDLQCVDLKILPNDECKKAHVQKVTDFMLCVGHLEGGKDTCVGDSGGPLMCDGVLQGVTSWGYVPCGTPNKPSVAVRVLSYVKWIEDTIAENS
Human KLKB1, sequence (P03952 391-638 limits assumed): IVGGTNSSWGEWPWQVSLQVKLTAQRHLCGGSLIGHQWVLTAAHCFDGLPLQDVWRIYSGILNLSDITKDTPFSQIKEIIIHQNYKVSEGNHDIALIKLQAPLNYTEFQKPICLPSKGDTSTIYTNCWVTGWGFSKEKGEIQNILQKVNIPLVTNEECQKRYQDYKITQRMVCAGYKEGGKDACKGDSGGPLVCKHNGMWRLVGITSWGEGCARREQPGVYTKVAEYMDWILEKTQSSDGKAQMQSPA
Human KLKB1, sequence (P03952 20-390 partner limits assumed): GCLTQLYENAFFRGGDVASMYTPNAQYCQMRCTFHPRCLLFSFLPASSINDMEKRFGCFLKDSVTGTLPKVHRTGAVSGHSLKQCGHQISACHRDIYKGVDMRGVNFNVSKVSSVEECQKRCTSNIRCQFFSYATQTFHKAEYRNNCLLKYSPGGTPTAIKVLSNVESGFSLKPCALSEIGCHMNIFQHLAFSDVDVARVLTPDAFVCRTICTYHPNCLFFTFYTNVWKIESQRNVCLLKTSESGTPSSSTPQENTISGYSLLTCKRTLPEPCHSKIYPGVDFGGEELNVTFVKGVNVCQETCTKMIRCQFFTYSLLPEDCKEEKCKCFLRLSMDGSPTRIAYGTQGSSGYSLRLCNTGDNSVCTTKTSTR

| SMILES | IC50 (Human KLKB1; Table C) | IC50 ([1]; Table C) | IC50 (Human thrombin) | IC50 (Human KLKB1; Table B) | other results |
| --- | --- | --- | --- | --- | --- |
| COc1ccccc1C(=O)n1nc(-c2ncccn2)nc1NCc1ccccc1 [Cmpd 18] | 0.1 to 1 µM | 10 to 100 µM | – | – | – |
| CC(C)(C)C(=O)n1nc(C2CCNCC2)c(F)c1NCc1ccc(Cl)s1 [Cmpd 24] | – | – | – | – | bioavailability ([2]; male, CD-1, mouse, po, 5 mg/kg, read-out: % F): 70%; AUC ([2]; mouse, iv, male CD-1 mice, single i.v. dose 1 mg/kg, dose type A (5% dimethyl acetamide, tetraethylene glycol), read-out: i.v. AUC): 200 ng·h/mL; C0 ([2]; mouse, iv, male CD-1 mice, single i.v. dose 1 mg/kg, dose type A (5% dimethyl acetamide, tetraethylene glycol), read-out: i.v. C0): 200 ng/mL; clearance ([2]; mouse, iv, male CD-1 mice, single i.v. dose 1 mg/kg, dose type A (5% dimethyl acetamide, tetraethylene glycol), read-out: i.v. CL (converted)): 83.3 mL/min/kg; Vd ([2]; mouse, iv, male CD-1 mice, single i.v. dose 1 mg/kg, dose type A (5% dimethyl acetamide, tetraethylene glycol), read-out: i.v. Vd): 8 L/kg; half-life ([2]; mouse, iv, male CD-1 mice, single i.v. dose 1 mg/kg, dose type A (5% dimethyl acetamide, tetraethylene glycol), read-out: i.v. t1/2 (converted)): 1 h; AUC ([2]; mouse, po, male CD-1 mice, single p.o. dose 5 mg/kg, dose type A (5% dimethyl acetamide, tetraethylene glycol), read-out: p.o. AUC): 600 ng·h/mL; half-life ([2]; mouse, po, male CD-1 mice, single p.o. dose 5 mg/kg, dose type A (5% dimethyl acetamide, tetraethylene glycol), read-out: p.o. t1/2 (converted)): 1 h |
| O=C(O)Cn1cccc(-c2cc(NCc3ccc(Cl)s3)[nH]n2)c1=O [Cmpd 59, 2-[3-(5-[(5-chlorothiophen-2-yl)methyl]amino-1H-pyrazol-3-yl)-2-oxo-1,2-dihydropyridin-1-yl]acetic acid] | – | – | 10 to 100 µM | 1 to 10 µM | IC50 ([1]; Table B): > 100 µM |
| CC(C)(C)C(=O)n1nc(-c2cccn(Cc3cccnn3)c2=O)cc1NCc1ccc(Cl)s1 [Cmpd 81, 3-(5-[(5-chlorothiophen-2-yl)methyl]amino-1-(2,2-dimethylpropanoyl)-1H-pyrazol-3-yl)-1-(pyridazin-3-ylmethyl)-1,2-dihydropyridin-2-one] | – | – | < 0.1 µM | 1 to 10 µM | IC50 ([1]; Table B): > 100 µM |
| O=C(c1ccc(N2CCOCC2)cc1)n1nc(-c2cccn(CCN3CCOCC3)c2=O)cc1NCc1ccc(Cl)s1 [Cmpd 218, 3-(5-[(5-chlorothiophen-2-yl)methyl]amino-1-[4-(morpholin-4-yl)phenyl]carbonyl-1H-pyrazol-3-yl)-1-[2-(morpholin-4-yl)ethyl]-1,2-dihydropyridin-2-one] | – | – | < 0.1 µM | 0.1 to 1 µM | – |
| O=c1c(-c2cc(NCc3ccc(Cl)s3)[nH]n2)cccn1Cc1ccccn1 [Cmpd 227, 3-(5-[(5-chlorothiophen-2-yl)methyl]amino-1H-pyrazol-3-yl)-1-(pyridin-2-ylmethyl)-1,2-dihydropyridin-2-one] | – | – | 1 to 10 µM | > 100 µM | – |
| O=c1c(-c2cc(NCc3ccc(Cl)s3)[nH]n2)cccn1Cc1ccncc1 [Cmpd 229, 3-(5-[(5-chlorothiophen-2-yl)methyl]amino-1H-pyrazol-3-yl)-1-(pyridin-4-ylmethyl)-1,2-dihydropyridin-2-one] | – | – | 1 to 10 µM | > 100 µM | – |
| O=c1c(-c2cc(NCc3ccc(Cl)s3)n[nH]2)cccn1CCc1ccccn1 [Cmpd 235, 3-(5-[(5-chlorothiophen-2-yl)methyl]amino-1H-pyrazol-3-yl)-1-[2-(pyridin-2-yl)ethyl]-1,2-dihydropyridin-2-one] | – | – | 10 to 100 µM | 10 to 100 µM | – |
| O=C(c1ccco1)n1nc(-c2ccc[nH]c2=O)cc1NCc1ccccc1 [Cmpd 237, 3-[5-(benzylamino)-1-[(furan-2-yl)carbonyl]-1H-pyrazol-3-yl]-1,2-dihydropyridin-2-one] | – | – | 0.1 to 1 µM | 10 to 100 µM | – |
| O=C(c1ccco1)n1nc(-c2cccn(Cc3ccccn3)c2=O)cc1NCc1ccccc1 [Cmpd 238, 3-[5-(benzylamino)-1-[(furan-2-yl)carbonyl]-1H-pyrazol-3-yl]-1-(pyridin-2-ylmethyl)-1,2-dihydropyridin-2-one] | – | – | < 0.1 µM | 1 to 10 µM | – |
| O=C(c1ccccc1Cl)n1nc(-c2cccn(Cc3ccco3)c2=O)cc1NCc1ccc(Cl)s1 [Cmpd 243, 3-1-[(2-chlorophenyl)carbonyl]-5-[(5-chlorothiophen-2-yl)methyl]amino-1H-pyrazol-3-yl-1-(furan-2-ylmethyl)-1,2-dihydropyridin-2-one] | – | – | < 0.1 µM | 0.1 to 1 µM | – |
| O=C(c1ccccc1Cl)n1nc(-c2cccn(Cc3ccoc3)c2=O)cc1NCc1ccc(Cl)s1 [Cmpd 244, 3-1-[(2-chlorophenyl)carbonyl]-5-[(5-chlorothiophen-2-yl)methyl]amino-1H-pyrazol-3-yl-1-(furan-3-ylmethyl)-1,2-dihydropyridin-2-one] | – | – | < 0.1 µM | 0.1 to 1 µM | – |
| Cn1cccc(-c2cc(NCc3ccc(Cl)s3)n(C(=O)C3(COC(=O)C4(CO)CC4)CC3)n2)c1=O [Cmpd 265, 1-[(5-[(5-chlorothiophen-2-yl)methyl]amino-3-(1-methyl-2-oxo-1,2-dihydropyridin-3-yl)-1H-pyrazol-1-yl)carbonyl]cyclopropylmethyl 1-(hydroxymethyl)cyclopropane-1-carboxylate] | – | – | < 0.1 µM | 1 to 10 µM | – |
| Nc1ccccc1C(=O)n1nc(-c2ncccc2F)cc1NCc1ccc(Cl)s1 [Cmpd 276] | – | – | – | 1 to 10 µM | IC50 ([1]; Table B): 10 to 100 µM |
| Nc1ccccc1C(=O)n1nc(-c2ccco2)cc1NCc1ccc(Cl)s1 [Cmpd 277] | – | – | – | 1 to 10 µM | IC50 ([1]; Table B): 10 to 100 µM |
| COc1ccccc1C(=O)n1nc(C2CCCCC2O)cc1NCc1ccc(Cl)s1 (centres unmarked) [Cmpd 282] | – | – | – | 1 to 10 µM | IC50 ([1]; Table B): > 100 µM |
| O=C(c1ccsc1)n1nc(-c2cccnn2)cc1NCc1ccc(Cl)s1 [Cmpd 292] | – | – | – | 0.1 to 1 µM | IC50 ([1]; Table B): > 100 µM |
| O=C(c1ccsc1)n1nc(-c2ccccn2)cc1NCc1ccc(Cl)s1 [Cmpd 293] | – | – | – | 0.1 to 1 µM | IC50 ([1]; Table B): > 100 µM |
| O=C(c1ccoc1)n1nc(C2CCOCC2)c(F)c1NCc1ccc(Cl)s1 [Cmpd 294] | – | – | – | 1 to 10 µM | IC50 ([1]; Table B): > 100 µM |
| COc1ccc(CNc2nc(-c3ccccn3)nn2C(=O)CCc2ccccc2)cc1 [Cmpd 323] | 1 to 10 µM | 10 to 100 µM | – | – | – |
| COc1ccccc1C(=O)n1nc(-c2ccccn2)nc1NCc1nccs1 [Cmpd 332] | 10 to 100 µM | 0.1 to 1 µM | – | – | – |
| COc1ccc(CNc2nc(-c3ccccn3)nn2C(=O)c2ccccc2)cc1 [Cmpd 360] | 1 to 10 µM | 1 to 10 µM | – | – | – |
| COc1ccc(CNc2nc(-c3cccnc3)nn2C(=O)c2ccccc2)cc1 [Cmpd 361] | 1 to 10 µM | 1 to 10 µM | – | – | – |
| O=C(c1ccccc1)n1nc(-c2ccccn2)nc1NCc1ccccc1 [Cmpd 362] | 0.1 to 1 µM | 10 to 100 µM | – | – | – |
| COc1ccccc1C(=O)n1nc(-c2cccnc2)nc1SC [Cmpd 366, 3-1-[(2-methoxyphenyl)carbonyl]-5-(methylsulfanyl)-1H-1,2,4-triazol-3-ylpyridine] | 1 to 10 µM | 1 to 10 µM | – | – | – |
| COc1ccc(C(=O)n2nc(C3CCOCC3)nc2NCc2ccc(Cl)s2)c(OC)c1 [Cmpd 384] | 0.1 to 1 µM | 10 to 100 µM | – | – | – |
| COc1ccccc1C(=O)n1nc(C2CCNCC2)nc1NCc1ccc(Cl)s1 [Cmpd 387] | < 0.1 µM | 10 to 100 µM | – | – | – |
| Cc1ccccc1C(=O)n1nc(-c2ccccn2)nc1NCc1ccc(Cl)s1 [Cmpd 391] | 0.1 to 1 µM | 10 to 100 µM | – | – | – |
| COc1ccccc1C(=O)n1nc(-c2ccc(N(C)C)cc2)nc1NCc1ccc(Cl)s1 [Cmpd 393] | 0.1 to 1 µM | 10 to 100 µM | – | – | – |
| O=C(c1ccsc1)n1nc(-c2ccncc2)nc1NCc1ccccc1 [Cmpd 407] | 0.1 to 1 µM | > 100 µM | – | – | – |
